Measured values as given in patent US20050209232A1, “Pyridazinone ureas as antagonists of alpha4 integrins” (priority 2004, published 2005).

What was measured:
α4β1 = target: T1, α4β1 (Homo sapiens, UniProt P05556+P13612); experiment: Ramos Cell Adhesion Assay (α4β1 Mediated Adhesion/VCAM-1); type: cell-based; conditions: Ramos cells adhering to recombinant hVCAM-1
T1 construct: Ramos cells, (50 μL at 2×10^6/mL) labeled with 5 μM Calcein AM; endogenous in cells; host or cells: Ramos cells
Experimental: Ramos Cell Adhesion Assay (α4β1 Mediated Adhesion/VCAM-1)
Immulon 96 well plates (Dynex) were coated with 100 μL recombinant hVCAM-1 at 4.0 μg/mL in 0.05 M NaCO3 buffer pH 9.0 overnight at 4° C. (R&D Systems). Plates were washed 2 times in PBS with 1% BSA and blocked for 1 h@room temperature in this buffer. PBS was removed and compounds to be tested (50 μL) were added at 2× concentration. Ramos cells, (50 μL at 2×10^6/mL) labeled with 5 μM Calcein AM (Molecular Probes) for 1 h at 37° C., were added to each well and allowed to adhere for 1 h at room temperature. Plates were washed 4 × in PBS+1% BSA and cells were lysed for 15 minutes in 100 μL of 1 M Tris pH 8.0 with 1% SDS. The plate was read at 485 nm excitation and 530 nm emission.

human α4β7 integrin = target: T2, human α4β7 integrin (Homo sapiens, UniProt P13612+P26010); experiment: α4β7-K562 Cell Adhesion Assay (α4β7 Mediated Adhesion/MAdCAM-1); type: cell-based; conditions: K562 cells expressing human α4β7 adhering to FLAG-hMAdCAM-1, 1 mM Mn2+
T2 construct: expressed in transfected cells; host or cells: K562 cells, stably transfected
T2 sequence (P13612 34-1032): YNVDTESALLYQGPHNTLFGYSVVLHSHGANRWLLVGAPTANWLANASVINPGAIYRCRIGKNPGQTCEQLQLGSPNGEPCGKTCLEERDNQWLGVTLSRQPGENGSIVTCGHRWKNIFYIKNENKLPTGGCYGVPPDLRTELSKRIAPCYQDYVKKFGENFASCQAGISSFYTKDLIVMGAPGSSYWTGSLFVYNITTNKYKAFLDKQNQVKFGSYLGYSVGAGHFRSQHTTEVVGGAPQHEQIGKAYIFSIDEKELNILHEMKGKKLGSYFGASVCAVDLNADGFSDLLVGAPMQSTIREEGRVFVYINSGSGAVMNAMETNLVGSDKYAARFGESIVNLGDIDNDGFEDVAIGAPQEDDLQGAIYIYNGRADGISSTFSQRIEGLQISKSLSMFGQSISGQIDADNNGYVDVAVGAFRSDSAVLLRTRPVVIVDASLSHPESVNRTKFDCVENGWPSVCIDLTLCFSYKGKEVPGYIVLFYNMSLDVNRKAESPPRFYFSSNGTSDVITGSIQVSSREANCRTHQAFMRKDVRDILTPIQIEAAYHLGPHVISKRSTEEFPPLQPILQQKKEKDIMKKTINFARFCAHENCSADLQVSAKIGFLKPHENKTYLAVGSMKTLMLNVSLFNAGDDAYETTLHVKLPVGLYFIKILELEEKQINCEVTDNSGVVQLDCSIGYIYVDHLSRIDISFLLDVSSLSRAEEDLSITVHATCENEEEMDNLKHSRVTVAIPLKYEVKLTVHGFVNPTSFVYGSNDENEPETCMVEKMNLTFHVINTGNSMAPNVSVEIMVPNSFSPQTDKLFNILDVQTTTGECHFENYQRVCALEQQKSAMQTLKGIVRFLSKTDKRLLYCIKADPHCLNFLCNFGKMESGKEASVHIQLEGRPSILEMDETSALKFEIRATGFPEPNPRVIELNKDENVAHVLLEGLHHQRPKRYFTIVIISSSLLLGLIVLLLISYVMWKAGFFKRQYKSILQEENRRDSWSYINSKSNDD
T2 sequence (P26010 20-798): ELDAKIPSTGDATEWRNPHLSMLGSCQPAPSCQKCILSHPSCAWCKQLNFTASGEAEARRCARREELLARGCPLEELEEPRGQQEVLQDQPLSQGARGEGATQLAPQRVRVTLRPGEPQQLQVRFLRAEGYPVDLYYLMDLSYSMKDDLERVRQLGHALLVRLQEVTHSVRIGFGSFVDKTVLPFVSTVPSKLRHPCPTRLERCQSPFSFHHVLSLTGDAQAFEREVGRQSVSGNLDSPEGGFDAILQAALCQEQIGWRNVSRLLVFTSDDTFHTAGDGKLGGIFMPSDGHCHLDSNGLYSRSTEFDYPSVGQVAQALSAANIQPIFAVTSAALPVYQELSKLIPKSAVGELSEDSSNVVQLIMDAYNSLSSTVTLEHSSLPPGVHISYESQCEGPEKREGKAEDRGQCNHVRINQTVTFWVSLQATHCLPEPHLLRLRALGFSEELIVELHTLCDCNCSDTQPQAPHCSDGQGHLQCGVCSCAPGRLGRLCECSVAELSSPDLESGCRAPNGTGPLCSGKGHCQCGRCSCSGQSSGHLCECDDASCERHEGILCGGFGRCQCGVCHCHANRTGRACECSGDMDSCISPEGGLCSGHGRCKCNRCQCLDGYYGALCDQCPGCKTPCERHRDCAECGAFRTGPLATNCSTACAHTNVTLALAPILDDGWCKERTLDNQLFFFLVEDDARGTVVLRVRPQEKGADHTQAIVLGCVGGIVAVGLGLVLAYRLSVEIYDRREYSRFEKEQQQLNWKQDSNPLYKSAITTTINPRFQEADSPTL
Experimental: α4β7-K562 Cell Adhesion Assay (α4β7 Mediated Adhesion/MAdCAM-1)
M2 anti-FLAG Antibody Coated 96-well plates (Sigma) were coated for 1 hour at 4° C. with 2-8 μL/well recombinant FLAG-hMAdCAM-1 contained in 100 μL of Dulbecco's PBS, pH 7.4, with 1% BSA and 1 mM Mn^2+ (PBS-BSA-Mn). Plates were washed once with PBS-BSA-Mn. Buffer was removed and compounds to be tested (50 μL) were added at 2× concentration. Stably transfected K562 cells expressing human α4β7 integrin, (50 μL at 2×10^6/mL) that had been labeled with 100 μg/mL carboxymethyl fluorescein diacetate succinimidyl ester (CFDA-SE; Molecular Probes) for 15 min at 37° C. were added to each well and allowed to adhere for 1 h at room temperature. Plates were washed 4× in PBS-BSA-Mn and then cells were lysed for 2 min by addtion of 100 μL of PBS without Ca^2+, Mg^2+ supplemented with 0.1 M NaOH. The plate was read on a 96-well fluorescent plate reader at 485 nm excitation and 530 nm emission.

Balb/c mice = experiment: In Vivo Model for Leukocytosis; set-up: species or system mouse; conditions: bled 1-1.5 h after administration
Source text: In Vivo Model for Leukocytosis
Leukocytosis the increase in circulating white blood cells (leukocytes). This can be brought about by preventing leukocyte binding to integrin counter-receptor adhesion molecules expressed on high endothelial venules. This cell adhesion occurs between immunoglobulin superfamily molecules and integrins. Relevant examples of these paired interactions include Intracellular Adhesion Molecule-1 and AlphaL Beta2 integrin, Vascular Cell Adhesion Molecule-1 and α4β1 integrin, and Mucosal Addressin Cell Adhesion Molecule-1 and α4β7 integrin, respectively.
In this model, a compound that antagonizes these leukocyte-endothelial interactions will cause an increase in circulating leukocytes, defined as leukocytosis, as measured at 1-1.5 h post-administration. This leukocytosis is indicative that normal lymphocyte or leukocyte emigration from the peripheral circulation was prevented. Similar emigration of cells out of the circulation into inflamed tissues is responsible for the progression and maintainance of the inflammatory state. Leukocytosis is an indication that lymphocyte and leukocyte extravasation is prevented, and is predictive of general anti-inflammatory activity.
One week prior to being tested, 7-10 week old female Balb/c mice, n=8 per group, were bled and randomized according to leukocyte counts. One week later, the mice were adminstered test compound orally or subcutaneously and then bled 1-1.5 h after drug administration, approximately 1 h after the peak blood concentration of the compound has occurred. Whole blood, 250-350 microliters, was collected from each mouse into potassium-EDTA […] collection tubes (Becton-Dickenson) and mixed to prevent clotting.
Cell counts and differential counts on the whole blood preparation were performed using an Advia 120 Hematology System (Bayer Diagnostics). Cell counts as total leukocytes and as total lympohcytes were made and compared to counts made from mice dosed with vehicle only. Data were reported as percent of vehicle control for lymphocyte counts and total leukocyte counts.
Statistical analyses were performed using ANOVA with Dunnet's multiple comparison test.

T1 sequence (P05556 21-798, one chain of several): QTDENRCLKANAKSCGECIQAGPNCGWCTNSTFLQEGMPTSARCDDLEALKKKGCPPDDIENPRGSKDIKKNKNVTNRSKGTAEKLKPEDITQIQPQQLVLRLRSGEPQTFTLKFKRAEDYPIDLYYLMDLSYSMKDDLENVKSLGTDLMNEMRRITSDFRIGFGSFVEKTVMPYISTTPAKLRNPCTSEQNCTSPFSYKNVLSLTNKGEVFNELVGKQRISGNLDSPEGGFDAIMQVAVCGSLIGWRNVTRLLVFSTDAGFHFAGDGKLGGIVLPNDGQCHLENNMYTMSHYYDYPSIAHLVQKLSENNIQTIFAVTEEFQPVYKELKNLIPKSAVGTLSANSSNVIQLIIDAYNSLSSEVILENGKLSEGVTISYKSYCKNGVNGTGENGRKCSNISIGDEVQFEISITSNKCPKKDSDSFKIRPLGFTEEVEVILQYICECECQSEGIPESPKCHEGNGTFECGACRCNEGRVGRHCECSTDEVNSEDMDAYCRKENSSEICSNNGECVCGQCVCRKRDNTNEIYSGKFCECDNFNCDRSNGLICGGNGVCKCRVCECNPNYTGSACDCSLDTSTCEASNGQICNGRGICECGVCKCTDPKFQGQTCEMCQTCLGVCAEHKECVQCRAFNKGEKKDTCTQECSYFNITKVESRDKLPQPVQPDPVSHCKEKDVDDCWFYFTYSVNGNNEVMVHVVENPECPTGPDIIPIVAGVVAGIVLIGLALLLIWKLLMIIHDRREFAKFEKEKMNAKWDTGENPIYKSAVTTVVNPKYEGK

| SMILES | IC50 (α4β1) | IC50 (human α4β7 integrin) | Lymphoycte Counts % of Vehicle Control (Balb/c mice; 3 mg/kg sc) | Total Leukocyte Count % of Vehicle Control (Balb/c mice; 3 mg/kg sc) | Lymphoycte Counts % of Vehicle Control (Balb/c mice; 10 mg/kg sc) | Total Leukocyte Count % of Vehicle Control (Balb/c mice; 10 mg/kg sc) | Lymphoycte Counts % of Vehicle Control (Balb/c mice; 30 mg/kg sc) | Total Leukocyte Count % of Vehicle Control (Balb/c mice; 30 mg/kg sc) | Lymphoycte Counts % of Vehicle Control (Balb/c mice; 3 mg/kg po) | Total Leukocyte Count % of Vehicle Control (Balb/c mice; 3 mg/kg po) | Lymphoycte Counts % of Vehicle Control (Balb/c mice; 10 mg/kg po) | Total Leukocyte Count % of Vehicle Control (Balb/c mice; 10 mg/kg po) | Lymphoycte Counts % of Vehicle Control (Balb/c mice; 30 mg/kg po) | Total Leukocyte Count % of Vehicle Control (Balb/c mice; 30 mg/kg po) |
| --- | --- | --- | --- | --- | --- | --- | --- | --- | --- | --- | --- | --- | --- | --- |
| COc1cnn(C)c(=O)c1-c1ccc(C[C@H](NC(=O)N(C)CC(C)C)C(=O)O)cc1 [Cpd 13] | 1750 nM | 17 nM | 84.4 % of Vehicle Control | 84.4 % of Vehicle Control | 133.6 % of Vehicle Control | 133.5 % of Vehicle Control | 154.3 % of Vehicle Control | 149.5 % of Vehicle Control |  |  |  |  |  |  |
| COc1cnn(C)c(=O)c1-c1ccc(C[C@H](NC(=O)N(C)CC(C)C)C(=O)OCCO)cc1 [Cpd 21, 2-(3-Isobutyl-3-methyl-ureido)-3-[4-(5-methoxy-2-methyl-3-oxo-2,3-dihydro-pyridazin-4-yl)-phenyl]-propionic acid 2-hydroxy-ethyl ester] | > 5000 nM | 2900 nM |  |  |  |  |  |  | 148.1 % of Vehicle Control | 121.9 % of Vehicle Control | 156.8 % of Vehicle Control | 118.7 % of Vehicle Control | 189.6 % of Vehicle Control | 131.0 % of Vehicle Control |
